Results: ChEMBL document CHEMBL1201862, “PubChem BioAssay data set” (2004)
The source made the active and inactive calls.

How the values were obtained:
[1] = biological target: T1, Protein RecA (Mycobacterium tuberculosis, UniProt P9WHJ3); test: Fluorescence Cell-Free Homogeneous Dose Retest to Identify Inhibitors of RecA-Intein Splicing Activity. [Related pubchem assays (depositor defined):AID2097, AID2223, AID489010, AID492950]; format: functional
T1 sequence (P9WHJ3 whole entry): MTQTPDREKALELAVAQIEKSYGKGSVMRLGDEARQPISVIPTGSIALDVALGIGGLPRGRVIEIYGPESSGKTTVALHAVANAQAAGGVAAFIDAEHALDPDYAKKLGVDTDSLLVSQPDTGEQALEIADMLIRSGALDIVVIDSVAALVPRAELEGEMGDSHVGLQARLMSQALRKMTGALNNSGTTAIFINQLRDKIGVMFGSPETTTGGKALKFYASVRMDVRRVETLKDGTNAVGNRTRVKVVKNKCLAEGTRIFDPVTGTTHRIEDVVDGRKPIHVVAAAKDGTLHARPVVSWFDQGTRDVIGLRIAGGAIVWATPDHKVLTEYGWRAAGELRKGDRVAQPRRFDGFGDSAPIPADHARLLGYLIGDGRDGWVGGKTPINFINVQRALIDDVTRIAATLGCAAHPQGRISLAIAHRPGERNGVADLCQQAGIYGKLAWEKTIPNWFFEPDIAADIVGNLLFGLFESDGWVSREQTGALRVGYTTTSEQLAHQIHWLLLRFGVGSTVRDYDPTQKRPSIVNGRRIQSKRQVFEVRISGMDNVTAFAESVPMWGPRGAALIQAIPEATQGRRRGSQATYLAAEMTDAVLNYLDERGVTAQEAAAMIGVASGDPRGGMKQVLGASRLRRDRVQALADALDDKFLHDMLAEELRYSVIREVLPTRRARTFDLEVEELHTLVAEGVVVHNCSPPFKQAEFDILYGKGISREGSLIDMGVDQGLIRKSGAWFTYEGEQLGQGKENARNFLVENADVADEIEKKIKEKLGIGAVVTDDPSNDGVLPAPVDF

[2] = biological target: T2, Histone-lysine N-methyltransferase NSD2 (Homo sapiens, UniProt O96028); format: biochemical
T2 sequence (O96028 whole entry): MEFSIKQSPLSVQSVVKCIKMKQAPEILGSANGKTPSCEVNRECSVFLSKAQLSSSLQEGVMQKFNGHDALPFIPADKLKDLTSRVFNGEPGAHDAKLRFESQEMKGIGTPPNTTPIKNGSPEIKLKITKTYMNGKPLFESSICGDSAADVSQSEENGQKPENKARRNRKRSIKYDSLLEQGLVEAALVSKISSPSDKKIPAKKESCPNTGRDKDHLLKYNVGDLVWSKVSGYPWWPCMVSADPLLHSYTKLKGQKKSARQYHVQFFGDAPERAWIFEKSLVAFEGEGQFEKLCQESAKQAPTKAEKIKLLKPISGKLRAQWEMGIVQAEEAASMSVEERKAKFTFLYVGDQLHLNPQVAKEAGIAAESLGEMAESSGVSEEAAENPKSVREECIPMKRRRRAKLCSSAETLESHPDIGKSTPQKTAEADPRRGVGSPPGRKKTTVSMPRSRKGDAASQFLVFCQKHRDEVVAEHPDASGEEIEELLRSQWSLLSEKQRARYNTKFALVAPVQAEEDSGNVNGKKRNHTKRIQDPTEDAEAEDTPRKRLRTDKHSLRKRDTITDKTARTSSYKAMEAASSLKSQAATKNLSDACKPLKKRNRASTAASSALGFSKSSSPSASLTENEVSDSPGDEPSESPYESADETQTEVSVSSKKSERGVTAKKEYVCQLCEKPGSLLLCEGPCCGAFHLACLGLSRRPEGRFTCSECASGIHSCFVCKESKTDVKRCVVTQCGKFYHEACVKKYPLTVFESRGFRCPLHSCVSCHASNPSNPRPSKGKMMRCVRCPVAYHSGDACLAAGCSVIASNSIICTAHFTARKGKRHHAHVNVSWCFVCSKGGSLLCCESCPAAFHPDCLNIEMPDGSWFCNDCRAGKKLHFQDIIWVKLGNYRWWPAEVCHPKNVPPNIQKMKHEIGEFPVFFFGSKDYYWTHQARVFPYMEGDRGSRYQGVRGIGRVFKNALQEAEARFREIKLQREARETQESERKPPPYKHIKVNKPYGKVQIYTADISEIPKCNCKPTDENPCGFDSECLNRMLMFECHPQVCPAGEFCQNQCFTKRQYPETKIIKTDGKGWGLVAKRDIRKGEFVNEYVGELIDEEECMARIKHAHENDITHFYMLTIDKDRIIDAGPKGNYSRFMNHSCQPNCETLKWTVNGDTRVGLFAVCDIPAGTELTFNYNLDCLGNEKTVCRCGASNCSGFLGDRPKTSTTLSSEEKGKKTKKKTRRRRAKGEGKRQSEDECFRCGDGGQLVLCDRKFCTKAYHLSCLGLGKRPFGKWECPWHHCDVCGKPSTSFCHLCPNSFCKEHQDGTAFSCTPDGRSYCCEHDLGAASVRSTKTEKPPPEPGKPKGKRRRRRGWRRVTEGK

[3] = biological target: T3, Dual specificity protein phosphatase 6 (Rattus norvegicus, UniProt Q64346); test: inhibition of rat DUSP6 enzyme activity – biochemical, in vitro, primary screen (AID 425)
T3 sequence (Q64346 whole entry): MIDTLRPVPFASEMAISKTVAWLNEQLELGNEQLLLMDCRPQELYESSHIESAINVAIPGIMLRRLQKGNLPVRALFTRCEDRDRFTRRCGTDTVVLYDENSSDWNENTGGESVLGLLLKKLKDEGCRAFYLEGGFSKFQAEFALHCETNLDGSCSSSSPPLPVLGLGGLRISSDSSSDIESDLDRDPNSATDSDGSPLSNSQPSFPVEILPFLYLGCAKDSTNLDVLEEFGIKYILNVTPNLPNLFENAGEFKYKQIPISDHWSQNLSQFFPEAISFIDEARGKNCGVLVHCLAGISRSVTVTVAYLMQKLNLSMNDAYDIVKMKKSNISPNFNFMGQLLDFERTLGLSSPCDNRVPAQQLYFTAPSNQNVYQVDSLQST

SMILES | EC50 [1] | AC50 [2] | IC50 [3]
COC(=O)c1cc(C)nc2c1C(=O)C(=O)C=C2N1CCOCC1 | 0.199 µM (active) | 0.407 µM (active) | 
NS(=O)(=O)c1cc(C(=O)NC2CCSc3ccccc32)ccc1Cl (stereo unspecified) |  |  | > 158 µM (not active)
CCOC(=O)C1=C(C)OC2(O)c3ccccc3C(=O)C12O (stereo unspecified) |  | 8.9 µM (active) | 
N#Cc1c(N2CCCC2)nc(N)c2c(N)nc(N3CCCC3)cc12 | 0.109 µM (active) |  | 1.05 µM (active)
